According to ChEMBL document CHEMBL1137550, “New potent acetylcholinesterase inhibitors in the tetracyclic triterpene series” (J Med Chem, 2007):

How the values were obtained:
[1] = biological target: T1, Acetylcholinesterase (Bos taurus, UniProt P23795); assay: Inhibition of bovine erythrocytes AChE by Ellman's method
T1 sequence (P23795 whole entry): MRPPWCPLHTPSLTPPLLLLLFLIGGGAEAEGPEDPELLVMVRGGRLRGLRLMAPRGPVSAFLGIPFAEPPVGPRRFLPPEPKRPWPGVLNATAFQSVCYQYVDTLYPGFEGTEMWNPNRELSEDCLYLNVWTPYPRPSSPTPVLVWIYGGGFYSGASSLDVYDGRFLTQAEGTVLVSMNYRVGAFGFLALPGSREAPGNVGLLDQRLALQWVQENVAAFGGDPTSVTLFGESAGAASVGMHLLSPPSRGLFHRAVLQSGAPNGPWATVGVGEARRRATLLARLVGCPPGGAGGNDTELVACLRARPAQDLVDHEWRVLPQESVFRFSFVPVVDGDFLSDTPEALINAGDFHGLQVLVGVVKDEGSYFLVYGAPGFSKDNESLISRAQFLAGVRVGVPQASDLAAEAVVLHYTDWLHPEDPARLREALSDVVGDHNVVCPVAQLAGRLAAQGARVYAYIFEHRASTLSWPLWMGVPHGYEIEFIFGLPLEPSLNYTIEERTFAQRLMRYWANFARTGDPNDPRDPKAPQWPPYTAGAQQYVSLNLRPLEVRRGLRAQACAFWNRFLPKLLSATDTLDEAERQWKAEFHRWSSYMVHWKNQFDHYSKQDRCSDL

[2] = biological target: Acetylcholinesterase (Homo sapiens, UniProt P22303)
Sequence of Acetylcholinesterase (Homo sapiens, UniProt P22303) (P22303 whole entry): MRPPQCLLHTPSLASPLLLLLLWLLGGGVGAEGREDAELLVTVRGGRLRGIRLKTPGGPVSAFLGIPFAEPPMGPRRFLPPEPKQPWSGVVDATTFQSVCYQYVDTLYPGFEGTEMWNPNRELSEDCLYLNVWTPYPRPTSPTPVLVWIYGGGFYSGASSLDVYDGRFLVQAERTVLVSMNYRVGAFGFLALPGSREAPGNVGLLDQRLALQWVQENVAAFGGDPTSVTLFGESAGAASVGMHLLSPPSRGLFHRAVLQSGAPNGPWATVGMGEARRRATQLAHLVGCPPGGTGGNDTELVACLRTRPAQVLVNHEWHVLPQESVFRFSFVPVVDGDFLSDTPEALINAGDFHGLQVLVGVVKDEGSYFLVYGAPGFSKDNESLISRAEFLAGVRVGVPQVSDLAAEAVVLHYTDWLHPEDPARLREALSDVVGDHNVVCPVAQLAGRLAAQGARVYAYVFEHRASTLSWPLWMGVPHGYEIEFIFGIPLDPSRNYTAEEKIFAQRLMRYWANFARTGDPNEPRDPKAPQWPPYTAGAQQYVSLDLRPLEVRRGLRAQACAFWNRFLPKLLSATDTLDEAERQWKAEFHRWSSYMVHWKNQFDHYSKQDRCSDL
Description: Inhibition of human recombinant AChE by Ellman's method

[3] = biological target: Acetylcholinesterase (Torpedo californica, UniProt P04058)
Sequence of Acetylcholinesterase (Torpedo californica, UniProt P04058) (P04058 whole entry): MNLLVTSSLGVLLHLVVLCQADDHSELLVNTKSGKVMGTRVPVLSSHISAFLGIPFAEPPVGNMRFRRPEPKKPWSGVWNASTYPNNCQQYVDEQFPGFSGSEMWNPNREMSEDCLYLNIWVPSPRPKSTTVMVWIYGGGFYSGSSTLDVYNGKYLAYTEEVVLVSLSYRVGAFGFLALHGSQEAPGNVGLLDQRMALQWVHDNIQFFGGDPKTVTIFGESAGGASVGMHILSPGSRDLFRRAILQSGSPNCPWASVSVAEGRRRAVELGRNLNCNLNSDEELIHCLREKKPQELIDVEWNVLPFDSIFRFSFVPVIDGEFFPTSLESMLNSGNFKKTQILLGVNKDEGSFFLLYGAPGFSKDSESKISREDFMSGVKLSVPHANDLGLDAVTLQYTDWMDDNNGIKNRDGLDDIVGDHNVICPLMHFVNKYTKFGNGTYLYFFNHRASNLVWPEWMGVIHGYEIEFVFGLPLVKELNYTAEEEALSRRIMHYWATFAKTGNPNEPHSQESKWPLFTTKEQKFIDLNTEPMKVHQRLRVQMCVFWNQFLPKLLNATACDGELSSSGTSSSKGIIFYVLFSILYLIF
Description: Inhibition of Torpedo californica AChE by Ellman's method

[4] = biological target: Cholinesterase (Homo sapiens, UniProt P06276)
Sequence of Cholinesterase (P06276 whole entry): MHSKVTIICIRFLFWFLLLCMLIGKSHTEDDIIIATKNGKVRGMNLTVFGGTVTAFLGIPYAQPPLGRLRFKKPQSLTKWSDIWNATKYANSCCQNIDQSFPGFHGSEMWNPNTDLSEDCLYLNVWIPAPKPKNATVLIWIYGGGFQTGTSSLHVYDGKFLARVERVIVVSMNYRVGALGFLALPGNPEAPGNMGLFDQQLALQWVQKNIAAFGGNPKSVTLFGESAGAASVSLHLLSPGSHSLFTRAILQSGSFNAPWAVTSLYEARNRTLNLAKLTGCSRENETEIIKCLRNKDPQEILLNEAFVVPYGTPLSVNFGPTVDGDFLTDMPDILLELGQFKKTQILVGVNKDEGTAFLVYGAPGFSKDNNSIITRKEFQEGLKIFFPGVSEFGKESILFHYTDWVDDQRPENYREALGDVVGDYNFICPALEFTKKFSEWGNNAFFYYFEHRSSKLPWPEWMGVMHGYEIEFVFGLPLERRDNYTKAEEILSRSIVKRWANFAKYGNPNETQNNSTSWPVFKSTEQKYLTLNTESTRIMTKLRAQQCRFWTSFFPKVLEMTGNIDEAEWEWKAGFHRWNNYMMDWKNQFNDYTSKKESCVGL
Description: Inhibition of human serum BuChE by Ellman's method

[5] = biological target: Acetylcholinesterase (Electrophorus electricus, UniProt O42275)
Sequence of Acetylcholinesterase (Electrophorus electricus, UniProt O42275) (O42275 whole entry): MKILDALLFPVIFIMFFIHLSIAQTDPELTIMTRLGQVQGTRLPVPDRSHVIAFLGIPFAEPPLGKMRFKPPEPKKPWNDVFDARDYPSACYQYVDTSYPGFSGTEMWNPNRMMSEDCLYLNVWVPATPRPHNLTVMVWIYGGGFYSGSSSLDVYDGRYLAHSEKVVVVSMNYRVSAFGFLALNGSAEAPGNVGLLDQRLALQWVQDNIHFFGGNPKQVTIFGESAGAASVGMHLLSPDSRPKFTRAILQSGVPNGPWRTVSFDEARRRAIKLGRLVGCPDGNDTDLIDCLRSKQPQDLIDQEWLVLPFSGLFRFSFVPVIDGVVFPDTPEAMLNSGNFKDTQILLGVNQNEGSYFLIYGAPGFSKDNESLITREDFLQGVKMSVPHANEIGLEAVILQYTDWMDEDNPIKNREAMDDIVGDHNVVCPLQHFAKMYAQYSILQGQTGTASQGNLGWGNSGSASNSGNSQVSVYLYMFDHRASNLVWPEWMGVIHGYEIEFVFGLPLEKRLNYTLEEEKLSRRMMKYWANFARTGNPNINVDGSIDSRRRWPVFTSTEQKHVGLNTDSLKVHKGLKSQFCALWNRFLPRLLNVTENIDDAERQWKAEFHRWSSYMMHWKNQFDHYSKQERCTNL
Description: Inhibition of Electrophorus electricus AChE by Ellman's method

Row | SMILES | IC50 [1] [µM] | IC50 [2] [µM] | IC50 [3] [µM] | IC50 [4] [µM] | IC50 [5] [µM]
1 | CC[C@H](C)C1=N[C@H]2CC=C3C[C@H]4C(=O)C[C@]5(C)[C@@H]([C@H](C)N(C)C)[C@H](O)C[C@@]5(C)[C@@H]4CC[C@H]3[C@]2(C)CN1 | 7.35 | 3.83 | 0.447 | > 10 | –
2 | CC[C@H](C)C(=O)N[C@H]1CC=C2C[C@H]3C(=O)C[C@]4(C)[C@@H]([C@H](C)N(C)C)[C@H](O)C[C@@]4(C)[C@@H]3CC[C@H]2[C@]1(C)/C=N/Cc1ccccc1 | – | – | – | > 10 | –
3 | CC[C@H](C)C(=O)N[C@H]1CC[C@H]2C[C@H]3C(=O)C[C@]4(C)[C@@H]([C@H](C)N(C)C)[C@H](O)C[C@@]4(C)[C@@H]3CC[C@H]2[C@]1(C)CN | – | – | – | – | 1.34
4 | CC[C@H](C)C(=O)N[C@H]1CC=C2C[C@H]3C(=O)C[C@]4(C)[C@@H]([C@H](C)N(C)C)[C@H](O)C[C@@]4(C)[C@@H]3CC[C@H]2[C@]1(C)CO | – | – | – | > 10 | 0.105
5 | CN[C@@H](C)[C@H]1[C@H](O)C[C@@]2(C)[C@@H]3CC[C@@H]4C(=CC[C@@H]5N=C(C(C)C)OC[C@]54C)C[C@H]3C(=O)C[C@]12C | 2.23 | 0.517 | 0.485 | – | 0.106
6 | CN[C@@H](C)[C@H]1[C@H](O)C[C@@]2(C)[C@@H]3CC[C@@H]4[C@@H](CC[C@H](NC(=O)C(C)C)[C@@]4(C)CO)C[C@H]3C(=O)C[C@]12C | – | – | – | 1.44 | 0.11
7 | CC(C)C1=N[C@H]2CC[C@]34C[C@]35C(=O)C[C@]3(C)[C@@H]([C@H](C)N(C)C)[C@H](O)C[C@@]3(C)[C@@H]5CC[C@H]4[C@]2(C)CN1 | 3.28 | 3.11 | 0.002 | > 10 | 0.018
8 | CC[C@H](C)C1=N[C@H]2CC[C@]34C[C@]35C(=O)C[C@]3(C)[C@@H]([C@H](C)N(C)C)[C@H](O)C[C@@]3(C)[C@@H]5CC[C@H]4[C@]2(C)CN1 | 6.49 | 4.37 | 0.002 | – | 0.014
9 | CC[C@H](C)C(=O)N[C@H]1CC=C2C[C@H]3C(=O)C[C@]4(C)[C@@H]([C@H](C)N(C)C)[C@H](O)C[C@@]4(C)[C@@H]3CC[C@H]2[C@]1(C)CN | – | – | – | > 10 | –
10 | CC(C)[C@H]1N[C@H]2CC=C3C[C@H]4C(=O)C[C@]5(C)[C@@H]([C@H](C)N(C)C)[C@H](O)C[C@@]5(C)[C@@H]4CC[C@H]3[C@]2(C)CO1 | – | – | – | > 10 | 2.38
11 | CCC(CC)C1=N[C@H]2CC=C3C[C@H]4C(=O)C[C@]5(C)[C@@H]([C@H](C)N(C)C)[C@H](O)C[C@@]5(C)[C@@H]4CC[C@H]3[C@]2(C)CO1 | – | – | – | 1.54 | –
12 | C[C@@H]([C@H]1[C@H](O)C[C@@]2(C)[C@@H]3CC[C@@H]4C(=CC[C@@H]5N=C(C(C)(C)C)OC[C@]54C)C[C@H]3C(=O)C[C@]12C)N(C)C | 1.18 | 0.351 | 0.372 | > 10 | –
13 | CC(C)C(=O)N[C@H]1CC[C@H]2C[C@H]3C(=O)C[C@]4(C)[C@@H]([C@H](C)N(C)C)[C@H](O)C[C@@]4(C)[C@@H]3CC[C@H]2[C@]1(C)CN | – | – | – | – | 0.291
14 | CC(C)C(=O)N[C@H]1CCC23CC24C(=O)C[C@]2(C)[C@@H]([C@H](C)N(C)C)[C@H](O)C[C@@]2(C)[C@@H]4CC[C@H]3[C@]1(C)CO (some centres not stated) | – | – | – | > 10 | > 10
15 | CC(C)[C@H]1N[C@H]2CC[C@]34C[C@]35C(=O)C[C@]3(C)[C@@H]([C@H](C)N(C)C)C(O)C[C@@]3(C)[C@@H]5CC[C@H]4[C@]2(C)CO1 (some centres not stated) | – | – | – | > 10 | 0.82
16 | CC1=N[C@H]2CC=C3C[C@H]4C(=O)C[C@]5(C)[C@@H]([C@H](C)N(C)C)[C@H](O)C[C@@]5(C)[C@@H]4CC[C@H]3[C@]2(C)CO1 | 6.12 | 5.24 | 2.79 | > 10 | –
17 | CC(C)C1=N[C@H]2CC[C@H]3C=C4C(=O)C[C@]5(C)[C@@H]([C@H](C)N(C)C)[C@H](O)C[C@@]5(C)[C@@H]4CC[C@H]3[C@]2(C)CO1 | – | – | – | 1.45 | 0.11
18 | CCC(CC)C(=O)N[C@H]1CC=C2C[C@H]3C(=O)C[C@]4(C)[C@@H]([C@H](C)N(C)C)[C@H](O)C[C@@]4(C)[C@@H]3CC[C@H]2[C@]1(C)CO | – | – | – | > 10 | –
19 | CC[C@H](C)C1=N[C@H]2CC=C3C[C@H]4C(=O)C[C@]5(C)[C@@H]([C@H](C)N(C)C)[C@H](O)C[C@@]5(C)[C@@H]4CC[C@H]3[C@]2(C)CO1 | 1.36 | 0.265 | 0.237 | > 10 | –
20 | CC(C)C1=N[C@H]2CC=C3CC4C(=O)C[C@]5(C)[C@@H]([C@H](C)N(C)C)[C@H](O)C[C@@]5(C)[C@@H]4CC[C@H]3[C@]2(C)CO1 (some centres not stated) | 0.756 | 0.299 | 0.385 | > 1 | 0.031
21 | C[C@@H]([C@H]1[C@H](O)C[C@@]2(C)[C@@H]3CC[C@@H]4C(=CC[C@@H]5N=C(c6ccccc6)OC[C@]54C)C[C@H]3C(=O)C[C@]12C)N(C)C | – | – | – | > 10 | –
22 | C[C@@H]([C@H]1[C@H](O)C[C@@]2(C)[C@@H]3CC[C@@H]4C(=CC[C@@H]5N=C(Cc6ccccc6)OC[C@]54C)C[C@H]3C(=O)C[C@]12C)N(C)C | – | – | – | 0.38 | –
23 | CC(C)C1=N[C@H]2CC=C3C[C@H]4C(=O)C[C@]5(C)[C@@H]([C@H](C)N(C)C)[C@H](OC(=O)C(C)(C)C)C[C@@]5(C)[C@@H]4CC[C@H]3[C@]2(C)CO1 | 1.39 | 0.839 | 0.724 | – | 0.11
24 | CC(=O)O[C@@H]1C[C@@]2(C)[C@@H]3CC[C@@H]4C(=CC[C@@H]5N=C(C(C)C)OC[C@]54C)C[C@H]3C(=O)C[C@]2(C)[C@H]1[C@H](C)N(C)C | – | – | – | – | 0.38
25 | CCC(C)C1=N[C@H]2CC=C3C[C@H]4C(=O)C[C@]5(C)[C@@H]([C@H](C)N(C)C)[C@H](O)C[C@@]5(C)[C@@H]4CC[C@H]3[C@]2(C)CO1 (some centres not stated) | – | – | – | > 10 | –
26 | CCC1=N[C@H]2CC=C3C[C@H]4C(=O)C[C@]5(C)[C@@H]([C@H](C)N(C)C)[C@H](O)C[C@@]5(C)[C@@H]4CC[C@H]3[C@]2(C)CO1 | – | – | – | > 10 | –
27 | CC(C)C(=O)N[C@H]1CC=C2C[C@H]3C(=O)C[C@]4(C)[C@@H]([C@H](C)N(C)C)[C@H](O)C[C@@]4(C)[C@@H]3CC[C@H]2[C@]1(C)CO (racemic) | – | – | – | 1.93 | –
